Several values for one entry are separate records, joined by “and”; a condition that tells them apart may be missing. Identical values can stand only once. Like-named read-outs stand apart in the source and are kept apart here.
Legend:
E. coli = details: 24 h contact time
From the text: PU formulated at a TDI: PPG mole ratio of 1.5:1 are post treated with water.

[1] = tested on: Escherichia coli ATCC 11229; details: for E. coli on sprayed household surfaces: metal plate, wall paper, vinyl tile, 0.06% silver solution
Protocol: The antimicrobial activities of the coatings on coupons and slides are tested against both Gram-positive (Staphylococcus aureus ATCC 6538) and Gram-negative (Escherichia coli ATCC 11229) bacteria. The following set of steps are executed over a four day period, in order to evaluate the coatings for antimicrobial activity.
(1) Three colonies are picked from a Petri dish that contains refrigerator stock of E. coli and S. aureus. Each of the colonies is placed into a separate test tube of 5 mL of TSB (tryptic soy broth); (2) the TSB cultures are incubated in a heated shaker; the culture is grown overnight at 37° C. while shaking at 175 rpm.
(1) 500 μL (0.5 mL) of FINAL E. coli bacteria are placed onto the center of each sterilized coating (24 hour); the same is done with S. aureus; (2) the coupons/coatings are stored for 24 hours in sealed pan by stacking Petri dishes on top of one another; (3) 200 mL of sterile water is added to the bottom of each pan; each pan is enclosed with clear saran wrap and aluminum foil; the Pyrex pans containing the coatings are incubated at room temperature for 24 hours; all inoculations of the coatings are performed in the same laminar flow hood as where the sterilized slides are placed into sterile Petri dishes; the prepared bacterial suspension (0.5 ml) is directly pipetted onto the coating of the slide; the spreading of the innoculum across the surface of the coating is observed and noted.
(1) 500 μL (0.5 mL) of FINAL E. coli bacteria is placed onto the center of each sterilized coating (0 hour); the same is done with S. aureus; (2) after bacteria are added to the 0 hour coatings, each Petri dish (containing the coating) is submerged with 25 mL of PBS; this immersion stops the viable bacteria from continuing to grow; (3) 100 μL of fluid is removed from coatings dish and placed in the middle of a previously labeled TSA plate; this is done to both agar plates labeled with −1 concentration; before removing the fluid, the surface of the coupon is scratched with a sterile loop to activate movement of bacteria; (4) “hockey sticks” are sterilized with ethanol and flame, to spread solution thoroughly; (5) the concentration of bacteria is diluted by removing 500 μL of the fluid in the coupon dish and placing it into a test tube with 4.5 mL of PBS; this solution is diluted in duplicate by removing 100 μL of the fluid and spreading into TSA plates labeled −2; (6) sterilized “hockey sticks” are used to spread solution thoroughly; (7) 500 μL of fluid from 1st tube prepared in step 5 is removed and placed into 4.5 mL of PBS; this dilution is mixed and 100 μL is removed in duplicate and placed into two new TSA plates labeled −3; (8) sterilized “hockey sticks” are used to spread these dilutions thoroughly; (9) steps 1-8 are repeated for each of the coupons or slides.

[2] = acetate sprayed with 0.06% w/w AgAOT/isopropanol, 24 h contact time
[3] = cotton sprayed with 0.06% w/w AgAOT/isopropanol, 24 h contact time
[4] = linen sprayed with 0.06% w/w AgAOT/isopropanol, 24 h contact time
[5] = metal plate sprayed with 0.06% Ag+ AgAOT solution, 0 h contact time
[6] = metal plate sprayed with 0.06% Ag+ AgAOT solution, 24 h contact time
[7] = polyester sprayed with 0.06% w/w AgAOT/isopropanol, 24 h contact time
[8] = silk sprayed with 0.06% w/w AgAOT/isopropanol, 0 h contact time
[9] = silk sprayed with 0.24% w/w AgAOT/isopropanol, 0 h
[10] = silk sprayed with 0.24% w/w AgAOT/isopropanol, 24 h
[11] = vinyl tile sprayed with 0.06% Ag+ AgAOT solution, 0 h contact time
[12] = vinyl tile sprayed with 0.06% Ag+ AgAOT solution, 24 h contact time
[13] = wall-paper sprayed with 0.06% Ag+ AgAOT solution, 24 h contact time

CCCCC(CC)COC(=O)CC(C(=O)OCC(CC)CCCC)S(=O)(=O)[O-].[Ag+] (stereo not drawn) [AgAOT]
E. coli growth on PU composition (E. coli; 0.01 weight % Ag in PU composition): + | E. coli growth on PU composition (E. coli; 0.03 weight % Ag in PU composition): + | E. coli growth on PU composition (E. coli; 0.10 weight % Ag in PU composition): + | E. coli growth on PU composition (E. coli; 0.30 weight % Ag in PU composition): − | E. coli growth on PU composition (E. coli; 1.0 weight % Ag in PU composition): − | E. coli growth on PU composition (E. coli; 3.0 weight % Ag in PU composition): − | Silver level providing complete inhibition (E. coli; PU composition): 0.30 % w/w silver | E. coli growth on sprayed fabrics ([1]; 0.06% Ag AgAOT/isopropanol, 24 h contact time): With the single exception of silk, complete eradication is obtained for each of the other fabrics | E. coli CFU/mL, Average ([1]; acetate sprayed with 0.06% w/w AgAOT/isopropanol, 0 h contact time): 3.08E+05 CFU/mL | E. coli CFU/mL, Average [1, 2]: 0.00E+00 CFU/mL | E. coli CFU/mL, Run #1-#4 [1, 2]: 0.00E+00 CFU/mL | E. coli CFU/mL, Average ([1]; cotton sprayed with 0.06% w/w AgAOT/isopropanol, 0 h contact time): 2.53E+05 CFU/mL | E. coli CFU/mL, Average [1, 3]: 0.00E+00 CFU/mL | E. coli CFU/mL, Run #1-#4 [1, 3]: 0.00E+00 CFU/mL | E. coli CFU/mL, Average ([1]; linen sprayed with 0.06% w/w AgAOT/isopropanol, 0 h contact time): 1.46E+05 CFU/mL | E. coli CFU/mL, Average [1, 4]: 0.00E+00 CFU/mL | E. coli CFU/mL, Run #1-#4 [1, 4]: 0.00E+00 CFU/mL | E. coli CFU/mL, Avg [1, 5]: 3.10E+05 CFU/mL | E. coli CFU/mL, Run #1-#2 [1, 5]: 3.40E+05 CFU/mL and 2.80E+05 CFU/mL | E. coli CFU/mL, Avg [1, 6]: 0.00E+00 CFU/mL | E. coli CFU/mL, Run #1-#2 [1, 6]: 0.00E+00 CFU/mL | E. coli on sprayed household surfaces ([1]; 0 h contact time (5-10 minutes)): does not significantly attenuate E. coli growth | E. coli on sprayed household surfaces ([1]; 24 h contact time): eradicated on each of the samples | E. coli CFU/mL, Average ([1]; polyester sprayed with 0.06% w/w AgAOT/isopropanol, 0 h contact time): 9.10E+04 CFU/mL | E. coli CFU/mL, Average [1, 7]: 0.00E+00 CFU/mL | E. coli CFU/mL, Run #1-#4 [1, 7]: 0.00E+00 CFU/mL | E. coli CFU/mL, Average ([1]; rayon sprayed with 0.06% w/w AgAOT/isopropanol, 0 h contact time): 2.88E+05 CFU/mL | E. coli CFU/mL, Average ([1]; rayon sprayed with 0.06% w/w AgAOT/isopropanol, 24 h contact time): 3.25E+05 CFU/mL | E. coli CFU/mL, Average [1, 8]: 2.55E+05 CFU/mL | E. coli CFU/mL, Run #1-#2 [1, 8]: 2.70E+05 CFU/mL and 2.40E+05 CFU/mL | E. coli CFU/mL, Average ([1]; silk sprayed with 0.06% w/w AgAOT/isopropanol, 24 h contact time): 2.75E+07 CFU/mL | E. coli CFU/mL, Average [1, 9]: 3.38E+05 CFU/mL | E. coli CFU/mL, Run #1-#4 [1, 9]: 3.20E+05 CFU/mL and 3.60E+05 CFU/mL and 3.10E+05 CFU/mL | E. coli CFU/mL, Average [1, 10]: 0.00E+00 CFU/mL | E. coli CFU/mL, Run #1-#4 [1, 10]: 0.00E+00 CFU/mL | E. coli CFU/mL, Avg [1, 11]: 2.60E+05 CFU/mL | E. coli CFU/mL, Run #1-#2 [1, 11]: 2.30E+05 CFU/mL and 2.90E+05 CFU/mL | E. coli CFU/mL, Avg [1, 12]: 0.00E+00 CFU/mL | E. coli CFU/mL, Run #1-#2 [1, 12]: 0.00E+00 CFU/mL | E. coli CFU/mL, Avg ([1]; wall-paper sprayed with 0.06% Ag+ AgAOT solution, 0 h contact time): 1.94E+05 CFU/mL | E. coli CFU/mL, Avg [1, 13]: 0.00E+00 CFU/mL | E. coli CFU/mL, Run #1-#2 [1, 13]: 0.00E+00 CFU/mL
